Drawing on PMC6470699, “BcXyl, a β-xylosidase Isolated from Brunfelsia Calycina Flowers with Anthocyanin-β-glycosidase Activity” (International Journal of Molecular Sciences, 2019), this text covers remaining activity for one compound.

In the test the target is T1, BcXyl (β-xylosidase, anthocyanin-β-glycosidase) (Brunfelsia pauciflora, UniProt A0A6G5NV63).
T1 construct: gene xyl; native purification from stage 2 petals (ammonium sulfate, DEAE, CM); about 72 kDa on SDS-PAGE; cDNA codes for 786 aa with predicted signal peptide 1-27; MS/MS peptides AVSNNFATLMR, LPMTWYPQSYADK, VTQQDLDDTFNPPFK, HYTAYDIDDWK, YEWWSEALHGISYTGPGVK
T1 sequence (A0A6G5NV63 28-785 limits assumed): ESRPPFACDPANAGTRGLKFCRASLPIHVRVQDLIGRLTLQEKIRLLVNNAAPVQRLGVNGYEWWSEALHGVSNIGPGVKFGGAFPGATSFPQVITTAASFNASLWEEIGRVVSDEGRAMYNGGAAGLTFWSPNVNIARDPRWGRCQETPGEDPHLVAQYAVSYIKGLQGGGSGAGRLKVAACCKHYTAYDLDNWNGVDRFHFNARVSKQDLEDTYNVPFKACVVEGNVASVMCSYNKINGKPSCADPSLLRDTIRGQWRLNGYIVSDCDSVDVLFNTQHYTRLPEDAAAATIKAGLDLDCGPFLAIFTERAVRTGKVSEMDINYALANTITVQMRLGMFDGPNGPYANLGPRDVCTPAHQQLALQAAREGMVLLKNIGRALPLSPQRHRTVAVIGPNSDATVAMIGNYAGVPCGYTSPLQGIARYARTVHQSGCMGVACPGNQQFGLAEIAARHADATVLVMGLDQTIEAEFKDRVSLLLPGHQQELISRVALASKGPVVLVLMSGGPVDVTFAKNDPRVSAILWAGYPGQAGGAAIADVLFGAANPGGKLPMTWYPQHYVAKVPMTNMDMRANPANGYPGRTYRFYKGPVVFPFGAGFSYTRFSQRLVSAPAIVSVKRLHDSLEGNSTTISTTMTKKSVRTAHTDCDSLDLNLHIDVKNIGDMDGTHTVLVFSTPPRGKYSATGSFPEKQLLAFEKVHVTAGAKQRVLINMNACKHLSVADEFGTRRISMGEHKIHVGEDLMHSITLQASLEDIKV
The test can be described thus: p-nitrophenol release at […] nm. The test is classed as biochemical. To be noted: read-out: Residual Activity (%).

`O=C(O)[C@H](O)[C@@H](O)[C@H](O)[C@H](O)CO` [D-gluconic acid]: the remaining activity at 1000 µM came out at 13.2 ± 0.69%.
